According to article PMC4965013, “Open Source Drug Discovery with the Malaria Box Compound Collection for Neglected Diseases and Beyond” (PLoS Pathogens, 2016):
pEC50: −log10 of the molar value.

Columns and labels:
[1] = system: P. falciparum 3D7 trophozoites; experiment: Metabolomic fingerprint profiling LC-MS; type: cell-based, Plasmodium falciparum; set-up: UDP-D-glucose / ADP-D-glucose: unit not given here; conditions: for Acetyllysine / N-acetyl-L-ornithine / N-carbamoyl-L-aspartate / NADPH / dAMP / dCMP / dTDP / dTMP / dTTP / dihydroorotate / orotate / DLH / DLS/SDL/SID / PD / PEE / PVNF / 3-phosphoglycerate / ADP-D-glucose / ATP / CDP / D-sedoheptulose-1/7-phosphate / FAD / GMP / NAD+ / NADP+ / Octoluse Bisphosphate / Pyroglutamic acid / UDP-D-glucose / UDP-D-glucuronate / UDP-N-acetyl-glucosamine / UDP / UMP / UTP / a-ketoglutarate / citrate/isocitrate / cytidine / dATP / dGMP/AMP / fumarate / glucose-1/6-phosphate / glycerate / guanine / guanosine / hypoxanthine / indole / inosine / nicotinate / ornithine / phosphoenolpyruvate / pyruvate / ribose-phosphate / sarcosine/alanine / sn-glycerol-3-phosphate / succinate/methylmalonic acid / uridine / xanthosine: S2 Table Metabolomics; for Acetyllysine: metabolite Acetyllysine; for N-acetyl-L-ornithine: metabolite N-acetyl-L-ornithine; for N-carbamoyl-L-aspartate: metabolite N-carbamoyl-L-aspartate; for NADPH: metabolite NADPH; for dAMP: metabolite dAMP; for dCMP: metabolite dCMP; for dTDP: metabolite dTDP; for dTMP: metabolite dTMP; for dTTP: metabolite dTTP; for dihydroorotate: metabolite dihydroorotate; for orotate: metabolite orotate; for DLH: peptide DLH; for DLS/SDL/SID: peptide DLS/SDL/SID; for PD: peptide PD; for PEE: peptide PEE; for PVNF: peptide PVNF; for 3-phosphoglycerate: metabolite 3-phosphoglycerate; for ADP-D-glucose: metabolite ADP-D-glucose; for ATP: metabolite ATP; for CDP: metabolite CDP; for CDP / D-sedoheptulose-1/7-phosphate / GMP / Octoluse Bisphosphate / UDP / UMP / UTP / citrate/isocitrate / dGMP/AMP / fumarate / glucose-1/6-phosphate / glycerate / guanine / guanosine / inosine / pyruvate / sarcosine/alanine / succinate/methylmalonic acid / uridine / xanthosine: change in metabolite level after compound treatment; for D-sedoheptulose-1/7-phosphate: metabolite D-sedoheptulose-1/7-phosphate; for FAD: metabolite FAD; for GMP: metabolite GMP; for NAD+: metabolite NAD+; for NADP+: metabolite NADP+; for Octoluse Bisphosphate: metabolite Octoluse Bisphosphate; for Pyroglutamic acid: metabolite Pyroglutamic acid; for UDP-D-glucose: metabolite UDP-D-glucose; for UDP-D-glucuronate: metabolite UDP-D-glucuronate; for UDP-N-acetyl-glucosamine: metabolite UDP-N-acetyl-glucosamine; for UDP: metabolite UDP; for UMP: metabolite UMP; for UTP: metabolite UTP; for a-ketoglutarate: metabolite a-ketoglutarate; for citrate/isocitrate: metabolite citrate/isocitrate; for cytidine: metabolite cytidine; for dATP: metabolite dATP; for dGMP/AMP: metabolite dGMP/AMP; for fumarate: metabolite fumarate; for glucose-1/6-phosphate: metabolite glucose-1/6-phosphate; for glycerate: metabolite glycerate; for guanine: metabolite guanine; for guanosine: metabolite guanosine; for hypoxanthine: metabolite hypoxanthine; for indole: metabolite indole; for inosine: metabolite inosine; for 2_3-Diphosphoglyceric acid / 4-phosphopantothenate / 6-phospho-D-gluconate / FMN / IMP / Pyrophosphate / Sedoheptoluse bisphosphate / cyclic-AMP / glutathione disulfide / lactate / myo-inositol: metabolite level change after treatment; for nicotinate: metabolite nicotinate; for ornithine: metabolite ornithine; for phosphoenolpyruvate: metabolite phosphoenolpyruvate; for pyruvate: metabolite pyruvate; for ribose-phosphate: metabolite ribose-phosphate; for sarcosine/alanine: metabolite sarcosine/alanine; for sn-glycerol-3-phosphate: metabolite sn-glycerol-3-phosphate; for succinate/methylmalonic acid: metabolite succinate/methylmalonic acid; for uridine: metabolite uridine; for xanthosine: metabolite xanthosine
[2] = system: P. falciparum; experiment: EC50 listed in S2 Table Metabolomics (used to set the concentration tested); type: cell-based; conditions: Plasmodium falciparum; EC50 used for Factor_XEC50 in metabolomics; read-out: EC50_nM

`CCOC(=O)c1c(NC(=O)c2ccccc2)sc2c(O)c(CN(CC)CC)ccc12` [MMV665831] gave an Acetyllysine [1] of -3.559, a N-acetyl-L-ornithine [1] of -2.775 and a N-carbamoyl-L-aspartate [1] of -1.992. For the same compound, the NADPH [1] was 1.923, the dAMP [1] was -1.503 and the dCMP [1] was -0.7769. The dTDP [1] was -0.143, the dTMP [1] was 0.09088 and the dTTP [1] was -0.5361. For the same compound, the dihydroorotate [1] was -1.759, the orotate [1] was -1.534 and the DLH [1] was -5.287. The DLS/SDL/SID [1] was -4.31, the PD [1] was -4.8541 and the PEE [1] was -3.834. It also gave a PVNF [1] of -4.964, a 3-phosphoglycerate [1] of -0.2896 and an ADP-D-glucose [1] of -0.2463. For the same compound, the ATP [1] was 0.0783, the CDP [1] was 0.9119 and the D-sedoheptulose-1/7-phosphate [1] was 0.4987. For the same compound, the FAD [1] was 0.1414, the GMP [1] was -0.668 and the “NAD+” value [1] was -0.0766. The “NADP+” value [1] was 0.2915, the “Octoluse Bisphosphate” value [1] was -0.5945 and the Pyroglutamic acid [1] was 0.1607. It also gave a UDP-D-glucose [1] of 0.05295, a UDP-D-glucuronate [1] of 0.02399 and a UDP-N-acetyl-glucosamine [1] of -0.03093. For the same compound, the UDP [1] was 0.469, the UMP [1] was -0.6472 and the UTP [1] was 0.04522. It also gave an a-ketoglutarate [1] of -1.141, a citrate/isocitrate [1] of 0.03995 and a cytidine [1] of 0.9734. For the same compound, the dATP [1] was -0.7894, the dGMP/AMP [1] was -0.1413 and the fumarate [1] was -1.268. For the same compound, the glucose-1/6-phosphate [1] was -0.4706, the glycerate [1] was -0.5026 and the guanine [1] was -0.4153. It also gave a guanosine [1] of -0.8776, a hypoxanthine [1] of -0.04834 and an indole [1] of -0.03305. It also gave an inosine [1] of -0.4277, a 2_3-Diphosphoglyceric acid [1] of 0.2082 and a 4-phosphopantothenate [1] of -0.594. For the same compound, the 6-phospho-D-gluconate [1] was -0.9918, the FMN [1] was 0.1595 and the IMP [1] was -0.2597. It also gave a Pyrophosphate [1] of -0.0001746, a Sedoheptoluse bisphosphate [1] of -0.3963 and a cyclic-AMP [1] of -0.8626. It also gave a glutathione disulfide [1] of -0.3472, a lactate [1] of -0.3473 and a myo-inositol [1] of -0.3976. For the same compound, the nicotinate [1] was -0.05954, the ornithine [1] was -0.2486 and the phosphoenolpyruvate [1] was -0.1118. For the same compound, the pyruvate [1] was -0.4191, the ribose-phosphate [1] was -0.6703 and the sarcosine/alanine [1] was -1.233. It also gave a sn-glycerol-3-phosphate [1] of -0.08824, a succinate/methylmalonic acid [1] of -0.8852 and a uridine [1] of -0.3477. For the same compound, the xanthosine [1] was -1.069 and the pEC50 [2] was 6.69.
With `CCn1c(CN2CCN(Cc3ccccc3)CC2)nc2cc(NC(=O)c3cccs3)ccc21` [MMV020439] the Acetyllysine [1] was 0.7202, the N-acetyl-L-ornithine [1] was 1.173 and the N-carbamoyl-L-aspartate [1] was 4.61. The NADPH [1] was 0.6182, the dAMP [1] was -1.31 and the dCMP [1] was -0.04169. The dTDP [1] was -1.17, the dTMP [1] was -0.7966 and the dTTP [1] was -1.312. It also gave a dihydroorotate [1] of 4.909, an orotate [1] of 0.06984 and a DLH [1] of 0.527. It also gave a DLS/SDL/SID [1] of 0.4749, a PD [1] of 0.8243 and a PEE [1] of 1.011. The PVNF [1] was 0.2931, the 3-phosphoglycerate [1] was -0.2906 and the ADP-D-glucose [1] was 0.1986. For the same compound, the ATP [1] was -0.1401, the CDP [1] was -0.619 and the D-sedoheptulose-1/7-phosphate [1] was 0.1339. The FAD [1] was 0.2064, the GMP [1] was -0.008752 and the “NAD+” value [1] was -0.02079. The “NADP+” value [1] was 0.1784, the “Octoluse Bisphosphate” value [1] was -0.1148 and the Pyroglutamic acid [1] was -0.1051. The UDP-D-glucose [1] was -0.06605, the UDP-D-glucuronate [1] was -0.1248 and the UDP-N-acetyl-glucosamine [1] was -0.297. The UDP [1] was -1.2, the UMP [1] was -1.107 and the UTP [1] was -1.42. It also gave an a-ketoglutarate [1] of -0.8941, a citrate/isocitrate [1] of -0.2089 and a cytidine [1] of 0.004614. For the same compound, the dATP [1] was 0.08773, the dGMP/AMP [1] was -0.284 and the fumarate [1] was 0.6925. The glucose-1/6-phosphate [1] was -0.2278, the glycerate [1] was -0.4348 and the guanine [1] was 0.1895. For the same compound, the guanosine [1] was 0.2428, the hypoxanthine [1] was -0.1751 and the indole [1] was -0.1227. The inosine [1] was -0.4694, the 2_3-Diphosphoglyceric acid [1] was -0.2253 and the 4-phosphopantothenate [1] was -0.909. For the same compound, the 6-phospho-D-gluconate [1] was -0.007867, the FMN [1] was -0.349 and the IMP [1] was -0.2804. The Pyrophosphate [1] was -0.2048, the Sedoheptoluse bisphosphate [1] was 0.08493 and the cyclic-AMP [1] was -0.08461. For the same compound, the glutathione disulfide [1] was -0.0242, the lactate [1] was -0.4874 and the myo-inositol [1] was -0.8159. The nicotinate [1] was -0.2742, the ornithine [1] was -0.03081 and the phosphoenolpyruvate [1] was -0.3915. It also gave a pyruvate [1] of -0.2887, a ribose-phosphate [1] of -0.1311 and a sarcosine/alanine [1] of 1.094. For the same compound, the sn-glycerol-3-phosphate [1] was 0.2993, the succinate/methylmalonic acid [1] was 0.5601 and the uridine [1] was 0.2091. For the same compound, the xanthosine [1] was -0.0525 and the pEC50 [2] was 6.29.
Work on `CCOC(=O)C1=C(c2ccccc2)N=c2sc(=Cc3cc(C)n(-c4ccc(F)cc4)c3C)c(=O)n2C1c1cccc(OC)c1OC` (stereo not drawn) [MMV666601] yielded an Acetyllysine [1] of -0.456, a N-acetyl-L-ornithine [1] of -0.1781 and a N-carbamoyl-L-aspartate [1] of 0.03088. It also gave an NADPH [1] of 0.275, a dAMP [1] of -0.2186 and a dCMP [1] of 0.01598. It also gave a dTDP [1] of -0.2912, a dTMP [1] of -0.2825 and a dTTP [1] of -0.02615. For the same compound, the dihydroorotate [1] was 0.05127, the orotate [1] was -0.2921 and the DLH [1] was -0.04885. For the same compound, the DLS/SDL/SID [1] was -0.07047, the PD [1] was -0.02012 and the PEE [1] was -0.1327. It also gave a PVNF [1] of -0.1227, a 3-phosphoglycerate [1] of 0.04151 and an ADP-D-glucose [1] of -0.1367. The ATP [1] was 0.1113, the CDP [1] was -0.2732 and the D-sedoheptulose-1/7-phosphate [1] was -0.3701. The FAD [1] was 0.009316, the GMP [1] was 0.1751 and the “NAD+” value [1] was 0.04978. The “NADP+” value [1] was -0.07076, the “Octoluse Bisphosphate” value [1] was -0.0546 and the Pyroglutamic acid [1] was 0.2145. It also gave a UDP-D-glucose [1] of -0.01836, a UDP-D-glucuronate [1] of -0.09865 and a UDP-N-acetyl-glucosamine [1] of -0.01529. For the same compound, the UDP [1] was -0.3315, the UMP [1] was 0.1049 and the UTP [1] was 0.1938. For the same compound, the a-ketoglutarate [1] was 0.0362, the citrate/isocitrate [1] was 0.4989 and the cytidine [1] was 0.1663. For the same compound, the dATP [1] was 0.2724, the dGMP/AMP [1] was -0.3927 and the fumarate [1] was -0.02339. For the same compound, the glucose-1/6-phosphate [1] was -0.02704, the glycerate [1] was 0.006669 and the guanine [1] was -0.1817. For the same compound, the guanosine [1] was -0.06753, the hypoxanthine [1] was 0.09643 and the indole [1] was 0.007804. For the same compound, the inosine [1] was 0, the 2_3-Diphosphoglyceric acid [1] was -0.2012 and the 4-phosphopantothenate [1] was -0.1061. For the same compound, the 6-phospho-D-gluconate [1] was 0.004224, the FMN [1] was -0.01347 and the IMP [1] was -0.1927. The Pyrophosphate [1] was -0.04369, the Sedoheptoluse bisphosphate [1] was -0.08738 and the cyclic-AMP [1] was 0.1818. It also gave a glutathione disulfide [1] of -0.01346, a lactate [1] of -0.02544 and a myo-inositol [1] of -0.1142. The nicotinate [1] was 0.07511, the ornithine [1] was -0.266 and the phosphoenolpyruvate [1] was -0.02402. The pyruvate [1] was -0.028, the ribose-phosphate [1] was 0.1121 and the sarcosine/alanine [1] was -0.3168. For the same compound, the sn-glycerol-3-phosphate [1] was -0.06233, the succinate/methylmalonic acid [1] was 0.1961 and the uridine [1] was -0.1775. For the same compound, the xanthosine [1] was 0.2404 and the pEC50 [2] was 6.81.
